Patent US20200237766A1, “PKM2 ACTIVATORS IN COMBINATION WITH REACTIVE OXYGEN SPECIES FOR TREATMENT OF CANCER” (TOLERO PHARMACEUTICALS, INC., priority 2017, published 2020)
Where two headings read alike, the source gives them in different places.

Biological target: PKM2 (Homo sapiens, UniProt P14618)
Assay: PKM2 activation biochemical assay (AC50 / max. response vs fructose 1,6-bisphosphate)
Conditions: for Max. Resp. (%): % maximum response in a biochemical assay as compared with Fructose 1,6-bisphosphate
[1] = biochemical assay, read-out: PKM2 AC50

Chain of PKM2 (P14618 whole entry): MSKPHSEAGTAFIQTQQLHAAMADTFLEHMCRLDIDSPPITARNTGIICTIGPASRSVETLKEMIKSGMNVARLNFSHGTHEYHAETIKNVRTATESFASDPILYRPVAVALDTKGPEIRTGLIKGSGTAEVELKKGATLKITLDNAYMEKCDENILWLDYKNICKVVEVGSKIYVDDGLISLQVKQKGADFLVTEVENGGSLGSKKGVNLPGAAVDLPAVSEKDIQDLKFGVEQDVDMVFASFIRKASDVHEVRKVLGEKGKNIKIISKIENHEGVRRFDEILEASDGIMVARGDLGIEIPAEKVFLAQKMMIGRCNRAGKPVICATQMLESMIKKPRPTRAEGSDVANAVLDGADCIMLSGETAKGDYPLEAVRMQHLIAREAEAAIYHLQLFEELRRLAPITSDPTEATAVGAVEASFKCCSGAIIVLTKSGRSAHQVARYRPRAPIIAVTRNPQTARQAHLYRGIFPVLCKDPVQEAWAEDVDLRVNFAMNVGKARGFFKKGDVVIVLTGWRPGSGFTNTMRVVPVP

| SMILES | Max. Resp. (%) | AC50 [1] | AC50 |
| --- | --- | --- | --- |
| O=C(c1cc(C(F)(F)F)n[nH]1)N(CCC1CCSCC1)Cc1ccccc1Cl [Compound 73] | 79% | 1340 nM |  |
| O=C(c1cc(C(F)(F)F)n[nH]1)N(CCC1CC[S+]([O-])CC1)Cc1ccccc1Cl (stereo not drawn) [Compound 74] | 95% | 640 nM |  |
| O=C(c1cc(C(F)(F)F)n[nH]1)N(CCC1CCS(=O)(=O)CC1)Cc1ccccc1Cl [Compound 75] | 102% | 188 nM |  |
| O=C(c1cc(C(F)(F)F)n[nH]1)N(CCC1CCS(=O)(=O)C1)Cc1ccc(O)cc1F (stereo not drawn) [Compound 76] | 93% | 54 nM |  |
| Nc1ccccc1CN(CCC1CCS(=O)(=O)C1)C(=O)c1cc(C(F)(F)F)n[nH]1 (stereo not drawn) [Compound 77] | 43% |  | 34800 nM |
| O=C(c1cc(C(F)(F)F)n[nH]1)N(CCC1CCS(=O)(=O)CC1)Cc1ccccc1Cl [Compound 78] |  | 485 nM |  |
| O=C(c1cc(C(F)(F)F)n[nH]1)N(CCC1CCSCC1)Cc1ccccc1F [Compound 79] | 95% | 1190 nM |  |
| O=C(c1cc(Cl)n[nH]1)N(CCC1CCSCC1)Cc1ccccc1F [Compound 80] | 46% |  | 1300 nM |
| O=C(c1cc(Cl)n[nH]1)N(CCC1CCS(=O)(=O)CC1)Cc1ccccc1F [Compound 81] | 72% |  | 1370 nM |
| O=C(c1cc(Br)n[nH]1)N(CCC1CCSCC1)Cc1ccccc1F [Compound 82] | 74% | 1370 nM |  |
| O=C(c1cc(Br)n[nH]1)N(CCC1CCS(=O)(=O)CC1)Cc1ccccc1F [Compound 83] | 98% | 1100 nM |  |
| O=C(c1cc(C(F)(F)F)n[nH]1)N(CCC1CCSCC1)Cc1c(F)cccc1F [Compound 84] | 73% | 697 nM |  |
| O=C(c1cc(C(F)(F)F)n[nH]1)N(CCC1CCS(=O)(=O)CC1)Cc1c(F)cccc1F [Compound 85] | 100% | 64 nM |  |
| O=C(c1cc(C(F)(F)F)n[nH]1)N(CCC1CCSCC1)Cc1ccc(O)cc1F [Compound 86] | 98% | 93 nM |  |
| O=C(c1cc(C(F)(F)F)n[nH]1)N(CCC1CCS(=O)(=O)CC1)Cc1ccc(O)cc1F [Compound 87] | 100% | 64 nM |  |
| O=C(c1cc(C(F)(F)F)n[nH]1)N(CCC1CCS(=O)(=O)C1)Cc1ccccn1 (stereo not drawn) [Compound 88] | 96% | 3600 nM |  |
| O=C(c1cc(C(F)(F)F)n[nH]1)N(CCC1CCS(=O)(=O)C1)Cc1ccncc1 (stereo not drawn) [Compound 89] | 35% | 58000 nM |  |
| O=C(c1cc(C(F)(F)F)n[nH]1)N(CCC1CCS(=O)(=O)C1)Cc1cccnc1 (stereo not drawn) [Compound 90] | 24% | 52000 nM |  |
| O=C(c1cc(C(F)(F)F)n[nH]1)N(CCC1CCS(=O)(=O)C1)Cc1ncccc1Cl (stereo not drawn) [Compound 92] | 74% | 1290 nM |  |
| O=C(c1cc(C(F)(F)F)n[nH]1)N(CCC1CCS(=O)(=O)C1)Cc1cncs1 (stereo not drawn) [Compound 93] | 26% |  | 49000 nM |
| O=C(c1cc(C(F)(F)F)n[nH]1)N(CCC1CCS(=O)(=O)C1)Cc1cccc([N+](=O)[O-])c1Cl (stereo not drawn) [Compound 94] | 69% | 2380 nM |  |
| O=C(c1cc(C(F)(F)F)n[nH]1)N(CCC1CCNCC1)Cc1ccccc1F [Compound 98] | 56% |  | 2050 nM |
| CS(=O)(=O)N1CCC(CCN(Cc2ccccc2F)C(=O)c2cc(C(F)(F)F)n[nH]2)CC1 [Compound 99] | 100% | 110 nM |  |
| CN1CCC(CN(Cc2ccccc2F)C(=O)c2cc(C(F)(F)F)n[nH]2)CC1 [Compound 100] | 29% | 101000 nM |  |
| CCN1CCC(CCN(Cc2ccccc2Cl)C(=O)c2cc(C(F)(F)F)n[nH]2)CC1 [Compound 101] | 96% | 1860 nM |  |
| CN1CCC(CCN(Cc2ccccc2Cl)C(=O)c2cc(C(F)(F)F)n[nH]2)CC1 [Compound 102] | 71% | 767 nM |  |
